Experimental data: patent publication US9687522B2, “Methods of treating a subject afflicted with an autoimmune disease using predictive biomarkers of clinical response to glatiramer acetate therapy in multiple sclerosis” (TEVA PHARMACEUTICAL INDUSTRIES, LTD., priority 2010, dated 2017)

Key:
[1] = test system: IL-18; assay: IL-18 by ELISA in ex-vivo PBMC supernatant of GA-treated MS patients; assay type: cell-based, human; conditions: both groups
Procedure: (§1) Approximately 60 cc of blood was obtained by venipuncture from each MS patient pre-treatment and at successive time points during treatment (3 months, 6 months, 9-12 months and 24 months). PBMC were purified using Ficoll-Hypaque gradients as described in the supplier's protocol (ICN Biomedicals Inc. Ohio, USA). Samples from collaborating centers were sent via overnight FedEx™ delivery at room temperature and processed immediately upon arrival.
2×10^5 PBMC/well were seeded in 96 well U-bottom micro titer plate in the absence of antigen (unstimulated condition) (US) or the presence of GA at 40 and 100 μg/ml (Teva Pharmaceutical Industries, Ltd., Israel), tetanus toxoid (TT 5 μg) obtained from UMASS (University of Mass, Worcester, Mass.). The latter was used as a control antigen. Supernatants were collected from cultured cells at days 1, 3 and 5 for various assays. After 5 days, 1 μCi ^3H-thymidine was added. […] Incorporated radioactivity was measured using a liquid Scintillation counter (Wallac MicroBeta Trilux, PerkinElmer, Boston, Mass.).
Interleukin-18 and caspase-1 levels were detected by human ELISA kits (Sandwich ELISA, Bender Nedaystems, USA). […] TGF-β, TNF-α, IL-4, IFN-γ, IL-17 and IL-10 levels were detected by human ELISA kits from ebioscience (San Diego Calif., 92121 USA). […] BDNF was detected by the Human BDNF ELISA kit from Chemicon International (catalog #CYT306). […]

[2] = test system: TGF-β; assay: Serum TGF-β by ELISA in GA-treated MS patients; assay type: in vivo, human
Source text: as §1
(§2) Interleukin-18 and caspase-1 levels were detected by human ELISA kits (Sandwich ELISA, Bender Nedaystems, USA). The sensitivity of the ELISA was 9.2 and 3.3 pg/ml for IL-18 and caspase-1 respectively. TGF-β, TNF-α, IL-4, IFN-γ, IL-17 and IL-10 levels were detected by human ELISA kits from ebioscience (San Diego Calif., 92121 USA). The sensitivity of the ebioscience kits were 60 pg/ml, 4 pg/ml, 2 pg/ml, 4 pg/ml, 4 pg/ml and 2 pg/ml respectively. BDNF was detected by the Human BDNF ELISA kit from Chemicon International (catalog #CYT306). The sensitivity of the BDNF ELISA was 7.8 pg/ml. […] Duplicates should be within 20% of the mean.

[3] = test system: class II MHC molecules of mouse and human origin; conditions: cited from earlier work
[4] = test system: TNF-α; assay: Serum TNF-α by ELISA in GA-treated MS patients; assay type: in vivo, human
Source text: as §1, §2

[5] = test system: relapsing-remitting MS (RR-MS) patients; assay: Prospective 2-year study of GA-treated RR-MS patients: ARR and EDSS; assay type: in vivo, human
Procedure: This is a prospective study in which sixty-two relapsing-remitting MS (RR-MS) patients treated with GA were classified clinically as GA-R (N=42) or GA-HR/NR (N=20) after 2 years of treatment. Cytokine levels, brain-derived neurotrophic factor (BDNF) levels, and T-cell proliferation to GA were analyzed at baseline, 3, 6, 9-12 and 24 months and assessed for their predictive value of clinical response after 2 years of treatment.
Sixty-two patients diagnosed with definite RR-MS (relapsing-remitting MS) according to the McDonald criteria (33) were included in the study. Following recruitment, the patients were treated with GA for at least 2 years. Subjects were closely followed up at the University of Medicine and Dentistry New Jersey (UMDNJ)-Robert Wood Johnson Medical School, University of Maryland Center for MS, the Gimbel MS Center, Teaneck, N.J. and the Carolina Medical Center-MS Center, Charlotte, N.C. Fifty patients were females with a mean age of 41±10.3 years and 12 were males with a mean age of 39.0±11.9 years. Patients had at least one relapse during the year prior to initiation of GA therapy (Table 2). After at least 2 years on GA therapy, patients were classified as GA-R (n=42) or GA-HR/NR (n=20) based on a clinical criteria more stringent than those recently reported in the literature. (34) A responder (R) is a patient with an annual relapse rate (ARR)<0.5 and no evidence of disease progression as measured by EDSS (expanded disability status scale). A hypo/non-responder (HR/NR) is a patient with an ARR>0.5 and/or with progression in the EDSS of at least 1 point sustained for 6 months (Table 3).
The patients were classified as GA-responders or hypo/non-responders after being treated with GA for at least 24 months, based on their ARR and progression in disability while on treatment (Tables 1 and 3). The mean disease duration was 8.3±6.1 years for the GA-R group and 12.2±8.2 years for GA-HR/NR group. The mean treatment duration was 26.4±6.6 months for the GA-R group and 26.1±5.9 months for the GA-HR/NR group.

[6] = test system: IFN-γ; assay: Serum IFN-γ by ELISA in GA-treated MS patients; assay type: in vivo, human
Source text: as §1, §2

[7] = test system: caspase-1; assay: Serum caspase-1 by ELISA in GA-treated MS patients; assay type: in vivo, human
Source text: as §1, §2

[8] = test system: RRMS subjects; conditions: cited from earlier work
[9] = GA 20 mg, largest controlled study

Substance: Glatiramer acetate [GA]
- Supernatant IL-18 levels, change during GA treatment [1]: did not show any significant changes from baseline
- Serum TGF-β level ([2]; HR/NR, 3 mo): 1921 ± 150 pg/mL
- Serum TGF-β level ([2]; HR/NR, 6 mo): 1723 ± 147 pg/mL
- Serum TGF-β level ([2]; HR/NR, 9-12 mo): 1727 ± 97 pg/mL
- Serum TGF-β level ([2]; HR/NR, 24 mo): 1844 ± 53 pg/mL
- Serum TGF-β level ([2]; HR/NR, Pre-Rx): 1796 ± 95 pg/mL
- Serum TGF-β level ([2]; R, 3 mo): 1908 ± 70 pg/mL
- Serum TGF-β level ([2]; R, 6 mo): 1968 ± 75 pg/mL
- Serum TGF-β level ([2]; R, 9-12 mo): 1901 ± 64 pg/mL
- Serum TGF-β level ([2]; R, 24 mo): 1983 ± 93 pg/mL
- Serum TGF-β level ([2]; R, Pre-Rx): 1774 ± 48 pg/mL
- binding to class II MHC molecules [3]: binds promiscuously and with high affinity
- Serum TNF-α level ([4]; HR, 3 mo): 56 ± 5.0 pg/mL
- Serum TNF-α level ([4]; HR, 6 mo): 55 ± 7.0 pg/mL
- Serum TNF-α level ([4]; HR, 9-12 mo): 59 ± 5.18 pg/mL
- Serum TNF-α level ([4]; HR, 24 mo): 52.4 ± 9.64 pg/mL
- Serum TNF-α level ([4]; HR, Pre-Rx): 51 ± 3.0 pg/mL
- Serum TNF-α level ([4]; R, 3 mo): 47 ± 3.3 pg/mL
- Serum TNF-α level ([4]; R, 6 mo): 44 ± 4.6 pg/mL
- Serum TNF-α level ([4]; R, 9-12 mo): 54 ± 4.24 pg/mL
- Serum TNF-α level ([4]; R, 24 mo): 50.13 ± 1.5 pg/mL
- Serum TNF-α level ([4]; R, Pre-Rx): 57 ± 3.6 pg/mL
- Δ TNF-alpha 6 months, Median (Non-Responders) ([4]; serum, change from baseline): 1
- Δ TNF-alpha 6 months, Median (Responders) ([4]; serum, change from baseline): −14
- Mean ARR ([5]; GA-HR/NR, 24 mo Rx): 0.75 ± 0.50
- Mean EDSS ([5]; GA-HR/NR, 24 mo Rx): 3.2 ± 1.37
- Mean ARR ([5]; GA-HR/NR, Pre-Rx): 0.80 ± 0.49
- Mean EDSS ([5]; GA-HR/NR, Pre-Rx): 1.95 ± 0.95
- increase in the EDSS ([5]; GA-HR/NR, during treatment): 1.12 point
- reduction in the ARR ([5]; GA-HR/NR, during treatment): 6.25%
- Mean ARR ([5]; GA-R, 24 mo Rx): 0.14 ± 0.25
- Mean EDSS ([5]; GA-R, 24 mo Rx): 1.57 ± 1.0
- Mean ARR ([5]; GA-R, Pre-Rx): 0.67 ± 0.46
- Mean EDSS ([5]; GA-R, Pre-Rx): 2.18 ± 1.08
- decrease in the EDSS ([5]; GA-R, during treatment): 0.61 point
- reduction in the ARR ([5]; GA-R, during treatment): 79%
- Serum IFN-γ level ([6]; HR/NR, 3 mo): 27 ± 1.45 pg/mL
- Serum IFN-γ level ([6]; HR/NR, 6 mo): 26 ± 1.53 pg/mL
- Serum IFN-γ level ([6]; HR/NR, 9-12 mo): 52 ± 5.8 pg/mL
- Serum IFN-γ level ([6]; HR/NR, 24 mo): 45 ± 5.3 pg/mL
- Serum IFN-γ level ([6]; HR/NR, Pre-Rx): 25 ± 1.7 pg/mL
- Serum IFN-γ level ([6]; R, 3 mo): 25 ± 2.1 pg/mL
- Serum IFN-γ level ([6]; R, 6 mo): 24 ± 1.9 pg/mL
- Serum IFN-γ level ([6]; R, 9-12 mo): 48 ± 6.3 pg/mL
- Serum IFN-γ level ([6]; R, 24 mo): 45 ± 3.8 pg/mL
- Serum IFN-γ level ([6]; R, Pre-Rx): 29 ± 2.3 pg/mL
- Serum caspase-1 level ([7]; HR/NR, 3 mo): 284 ± 35 pg/mL
- Serum caspase-1 level ([7]; HR/NR, 6 mo): 302 ± 42 pg/mL
- Serum caspase-1 level ([7]; HR/NR, 9-12 mo): 255 ± 21 pg/mL
- Serum caspase-1 level ([7]; HR/NR, 24 mo): 276 ± 7 pg/mL
- Serum caspase-1 level ([7]; HR/NR, Pre-Rx): 300 ± 29 pg/mL
- Serum caspase-1 level ([7]; R, 3 mo): 279 ± 23 pg/mL
- Serum caspase-1 level ([7]; R, 6 mo): 187 ± 21 pg/mL
- Serum caspase-1 level ([7]; R, 9-12 mo): 288 ± 12 pg/mL
- Serum caspase-1 level ([7]; R, 24 mo): 282 ± 11 pg/mL
- Serum caspase-1 level ([7]; R, Pre-Rx): 325 ± 26 pg/mL
- Δ Caspace 6 months, Median (Non-Responders) ([7]; serum, change from baseline): −19
- Δ Caspace 6 months, Median (Responders) ([7]; serum, change from baseline): −142.5
- median cumulative number of Gd-enhancing lesions ([8]; 20 mg group, over 9 months of treatment): 11 lesions
- relapse rate [8, 9]: 1.34
- relapse rate reduction versus placebo [8, 9]: 32%
- tolerability ([8]; daily standard dose of 20 mg): generally well tolerated
